Measurements: patent publication US6337334B1, “Pyrimidine derivatives” (Kowa Co., Ltd., priority 1994, dated 2002)
Structures can show the parent of a compound that is named as a salt.

Key:
ETB receptor = biological target: T1, ETB receptor (Rattus norvegicus, UniProt P21451); test: Endothelin binding inhibition experiment, 125I-endothelin-1 binding assay, ETB receptor membrane sample from rat brain; settings: 125I-endothelin-1, rat brain membranes
T1 construct: Rat brain tissue was minced, and a crude receptor membrane sample was prepared; from tissue; host or cells: rat brain crude membranes
T1 sequence (P21451 27-442): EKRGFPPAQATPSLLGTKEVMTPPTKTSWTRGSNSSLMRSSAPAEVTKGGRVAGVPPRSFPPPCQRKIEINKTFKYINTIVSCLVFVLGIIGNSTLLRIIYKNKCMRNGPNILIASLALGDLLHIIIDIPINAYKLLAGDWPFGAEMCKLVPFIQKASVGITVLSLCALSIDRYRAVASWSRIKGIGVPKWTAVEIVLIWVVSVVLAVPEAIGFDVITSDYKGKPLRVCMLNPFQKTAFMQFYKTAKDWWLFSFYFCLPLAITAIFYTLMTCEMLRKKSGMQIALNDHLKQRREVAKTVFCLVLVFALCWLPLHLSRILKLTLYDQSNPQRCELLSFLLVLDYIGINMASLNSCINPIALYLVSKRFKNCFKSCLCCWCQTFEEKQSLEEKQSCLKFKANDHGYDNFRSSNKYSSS
Procedure: (§1) Endothelin Binding Inhibition Experiment
(§2) The thus-obtained membrane sample (1 μl) was incubated together with ^125I-endothelin-1 (2×10^−11 M) and various concentrations of the compounds, for 2 hours at 25° C., in 250 μl in total volume of 50 mM Tris-HCl buffer (pH 7.4) containing 0.5% bovine serum albumin. The incubated mixture was filtered by use of an HVPP filters (pore size 0.45 μm, product of Milipore). The filters were washed with cold buffer A four times, and then measured with a gamma-ray counter (Aroka Autowell Gamma System ARC-251). Preparation of receptor membrane sample (ETB) from rat brain and assay of ^125I endothelin-1:
Rat brain tissue was minced, and a crude receptor membrane sample was prepared in a manner similar to that used in the aforementioned case of porcine thoracic aorta. Also, ^125I-endothelin-1 assay was performed in the same manner as described above.

ETA receptor = biological target: T2, ETA receptor (Sus scrofa, UniProt Q29010); test: Endothelin binding inhibition experiment, 125I-endothelin-1 binding assay, ETA receptor membrane samples from smooth muscles of porcine thoracic aorta; settings: 125I-endothelin-1 2×10^−11 M, porcine thoracic aorta membranes, 2 hours at 25° C.
T2 construct: Porcine thoracic aorta which was separated from the fatty tissue and then was removed endothelium with gauze was minced, and then homogenized; from tissue; host or cells: porcine thoracic aorta smooth muscle membranes
T2 sequence (Q29010 21-427): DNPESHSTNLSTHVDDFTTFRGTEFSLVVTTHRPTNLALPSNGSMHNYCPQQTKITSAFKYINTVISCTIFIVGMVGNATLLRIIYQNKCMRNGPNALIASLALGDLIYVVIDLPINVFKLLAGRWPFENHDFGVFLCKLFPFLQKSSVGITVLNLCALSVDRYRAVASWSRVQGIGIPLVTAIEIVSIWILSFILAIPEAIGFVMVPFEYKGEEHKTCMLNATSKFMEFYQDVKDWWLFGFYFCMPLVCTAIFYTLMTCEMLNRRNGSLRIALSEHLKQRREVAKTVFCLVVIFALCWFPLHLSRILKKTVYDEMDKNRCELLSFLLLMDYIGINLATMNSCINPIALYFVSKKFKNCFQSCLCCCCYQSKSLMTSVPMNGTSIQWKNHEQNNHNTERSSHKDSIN
Procedure: as §1
Preparation of receptor membrane samples (ETA) from smooth muscles of porcine thoracic aorta:
Porcine thoracic aorta which was separated from the fatty tissue and then was removed endothelium with gauze was minced, and then homogenized in three times the volume of Tris-HCl buffer (pH 7.4) (buffer A) containing 0.25 M sucrose, 3 mM ethylenediaminetetraacetic acid, 5 μg/ml of aprotinin, 10 μg/ml of pepstatin A, 10 μg/ml of leupeptin, and 0.1 μM p-amidinophenyl-methanesulfonyl fluoride. After centrifugation for 30 minutes at 1,000×g, the supernatant was further centrifuged for 30 minutes at 100,000×g. The pellets were suspended in buffer A, and recentrifuged for 30 minutes at 100,000×g. The pellets were suspended in buffer A and the suspension was stored at −80° C.
^125I-Endothelin-1 Binding Assay
as §2, with “endothelin-1: […]” for “endothelin-1:”

melting point [°C]	IC50 (ETB receptor) [µM]	IC50 (ETA receptor) [µM]	Compound
162 to 163			COc1ccccc1Oc1c(NS(=O)(=O)c2ccc(C(C)(C)C)cc2)nc(-c2ncccn2)nc1OCCC(=O)Nc1ccccc1 (as salt: sodium) [Compound No. 18, N-phenyl-3-[6-(4-t-butylphenylsulfonylamino)-5-(2-methoxyphenoxy)-2-(2-pyrimidinyl)-4-pyrimidinyloxy]-propionamide]
138 to 139			COc1ccccc1CNC(=O)CCOc1nc(-c2ncccn2)nc(NS(=O)(=O)c2ccc(C(C)(C)C)cc2)c1Oc1ccccc1OC (as salt: sodium) [Compound No. 34, N-(2-methoxybenzyl)-3-[6-(4-t-butylphenylsulfonylamino)-5-(2-methoxyphenoxy)-2-(2-pyrimidinyl)-4-pyrimidinyloxy]propionamide]
142 to 144			CCCCCNC(=O)CCOc1nc(-c2ncccn2)nc(NS(=O)(=O)c2ccc(C(C)(C)C)cc2)c1Oc1ccccc1OC (as salt: sodium) [Compound No. 43, N-(n-pentyl)-3-[6-(4-t-butylphenylsulfonylamino)-5-(2-methoxyphenoxy)-2-(2-pyrimidinyl)-4-pyrimidinyloxy]-propionamide]
120 to 122			COc1ccccc1NC(=O)CCOc1nc(-c2ncccn2)nc(NS(=O)(=O)c2ccc(C(C)(C)C)cc2)c1Oc1ccccc1OC (as salt: sodium) [Compound No. 48, N-(2-methoxyphenyl)-3-[6-(4-t-butylphenylsulfonylamino)-5-(2-methoxyphenoxy)-2-(2-pyrimidinyl)-4-pyrimidinyloxy]propionamide]
117 to 120			CCNC(=O)CCOc1nc(-c2ncccn2)nc(NS(=O)(=O)c2ccc(C(C)(C)C)cc2)c1Oc1ccccc1OC (as salt: sodium) [Compound No. 49, N-ethyl-3-[6-(4-t-butylphenylsulfonylamino)-5-(2-methoxyphenoxy)-2-(2-pyrimidinyl)-4-pyrimidinyloxy]-propionamide]
	0.8	9.4	COc1ccccc1Oc1c(NS(=O)(=O)c2ccc(C(C)(C)C)cc2)nc(-c2ncccn2)nc1OCC(=O)O [Compound No. 2, [6-(4-t-butylphenyl-sulfonylamino)-5-(2-methoxyphenoxy)-2-(2-pyrimidinyl)-4-pyrimidinyloxy]acetic acid]
	2.9	0.72	CCOC(=O)CCOc1nc(-c2ncccn2)nc(NS(=O)(=O)c2ccc(C(C)(C)C)cc2)c1Oc1ccccc1OC [Compound No. 9, ethyl 3-[6-(4-t-butylphenylsulfonylamino)-5-(2-methoxyphenoxy)-2-(2-pyrimidinyl)-4-pyrimidinyloxy]propionate]
	0.65	0.51	COc1ccccc1Oc1c(NS(=O)(=O)c2ccc(C(C)(C)C)cc2)nc(-c2ncccn2)nc1OCC(=O)OCc1ccccc1 [Compound No. 10, benzyl [6-(4-t-butylphenylsulfonylamino)-5-(2-methoxyphenoxy)-2-(2-pyrimidinyl)-4-pyrimidinyloxy]acetate]
	0.82	0.32	COc1ccccc1Oc1c(NS(=O)(=O)c2ccc(C(C)(C)C)cc2)nc(-c2ncccn2)nc1OCC(=O)Oc1cccc(Cl)c1 [Compound No. 12, 3-chlorophenyl [6-(4-t-butylphenylsulfonylamino)-5-(2-methoxyphenoxy)-2-(2-pyrimidinyl)-4-pyrimidinyloxy]acetate]
	0.0028	0.82	COc1ccccc1Oc1c(NS(=O)(=O)c2ccc(C(C)(C)C)cc2)nc(-c2ncccn2)nc1OCCC(=O)NCc1ccccc1 [Compound No. 14, N-benzyl-3-[6-(4-t-butylphenylsulfonylamino)-5-(2-methoxyphenoxy)-2-(2-pyrimidinyl)-4-pyrimidinyloxy]-propionamide]
	0.016	3.2	COc1ccccc1Oc1c(NS(=O)(=O)c2ccc(C(C)(C)C)cc2)nc(-c2ncccn2)nc1OCC(=O)NCc1ccccc1 [Compound No. 15, N-benzyl-[6-(4-t-butylphenylsulfonylamino)-5-(2-methoxyphenoxy)-2-(2-pyrimidinyl)-4-pyrimidinyloxy]acetamide]
	0.023	0.15	COc1ccccc1Oc1c(NS(=O)(=O)c2ccc(C(C)(C)C)cc2)nc(-c2ncccn2)nc1OCCC(=O)Nc1ccccc1 [Compound No. 18, N-phenyl-3-[6-(4-t-butylphenylsulfonylamino)-5-(2-methoxyphenoxy)-2-(2-pyrimidinyl)-4-pyrimidinyloxy]-propionamide]
	0.037	1.9	COc1ccccc1Oc1c(NS(=O)(=O)c2ccc(C(C)(C)C)cc2)nc(-c2ncccn2)nc1OCCCC(=O)Nc1ccccc1 [Compound No. 25, N-phenyl-4-[6-(4-t-butylphenylsulfonylamino)-5-(2-methoxyphenoxy)-2-(2-pyrimidinyl)-4-pyrimidinyloxy]butyramide]
	0.03	3.1	COc1ccccc1NC(=O)CCCOc1nc(-c2ncccn2)nc(NS(=O)(=O)c2ccc(C(C)(C)C)cc2)c1Oc1ccccc1OC [Compound No. 29, N-(2-methoxyphenyl)-4-[6-(4-t-butylphenylsulfonylamino)-5-(2-methoxyphenoxy)-2-(2-pyrimidinyl)-4-pyrimidinyloxy]-butyramide]
	0.22	0.39	COc1ccccc1CNC(=O)CCOc1nc(-c2ncccn2)nc(NS(=O)(=O)c2ccc(C(C)(C)C)cc2)c1Oc1ccccc1OC [Compound No. 34, N-(2-methoxybenzyl)-3-[6-(4-t-butylphenylsulfonylamino)-5-(2-methoxyphenoxy)-2-(2-pyrimidinyl)-4-pyrimidinyloxy]propionamide]
	0.00075	0.16	COc1ccccc1NC(=O)CCOc1nc(-c2ncccn2)nc(NS(=O)(=O)c2ccc(C(C)(C)C)cc2)c1Oc1ccccc1OC [Compound No. 48, N-(2-methoxyphenyl)-3-[6-(4-t-butylphenylsulfonylamino)-5-(2-methoxyphenoxy)-2-(2-pyrimidinyl)-4-pyrimidinyloxy]propionamide]
	0.00082	0.098	COc1ccccc1Oc1c(NS(=O)(=O)c2ccc(C(C)(C)C)cc2)nc(-c2ncccn2)nc1OCCC(=O)Nc1ccccc1C(C)C [Compound No. 53, N-(2-isopropylphenyl)-3-[6-(4-t-butylphenylsulfonylamino)-5-(2-methoxyphenoxy)-2-(2-pyrimidinyl)-4-pyrimidinyloxy]propionamide]
	0.1	0.0095	COc1ccccc1Oc1c(NS(=O)(=O)c2ccc(C(C)(C)C)cc2)nc(-c2ncccn2)nc1OCCC(=O)Nc1ccccn1 [Compound No. 92, N-(2-pyridyl)-3-[6-(4-t-butylphenylsulfonylamino)-5-(2-methoxyphenoxy)-2-(2-pyrimidinyl)-4-pyrimidinyloxy]-propionamide]

Compound	melting point [°C]	IC50 (ETB receptor) [µM]	IC50 (ETA receptor) [µM]
N-(2-chlorophenethyl)-4-[6-(4-t-butylphenylsulfonylamino)-5-(2-methoxyphenoxy)-2-(2-pyrimidinyl)-4-pyrimidinyloxy]-butylamide [Compound No. 38]		0.019	16.9
